In ChEMBL document CHEMBL3301562, “MMV Box screening against Plasmodium falciparum protein kinases and aminoacyl tRNA synthetases”:

Columns and labels:
Assay type in all cases: functional
[1] = target: T1, Proline--tRNA ligase (Plasmodium falciparum (isolate 3D7), UniProt Q8I5R7); assay: MMV: ProRS recombinant Plasmodium falciparum Prolyl-tRNA-synthetase, assay with yeast tRNA, ATP, and proline and 3 uM MMV malaria box compound, assay read out with kinase glo as % inhibition.
T1 sequence (Q8I5R7 whole entry): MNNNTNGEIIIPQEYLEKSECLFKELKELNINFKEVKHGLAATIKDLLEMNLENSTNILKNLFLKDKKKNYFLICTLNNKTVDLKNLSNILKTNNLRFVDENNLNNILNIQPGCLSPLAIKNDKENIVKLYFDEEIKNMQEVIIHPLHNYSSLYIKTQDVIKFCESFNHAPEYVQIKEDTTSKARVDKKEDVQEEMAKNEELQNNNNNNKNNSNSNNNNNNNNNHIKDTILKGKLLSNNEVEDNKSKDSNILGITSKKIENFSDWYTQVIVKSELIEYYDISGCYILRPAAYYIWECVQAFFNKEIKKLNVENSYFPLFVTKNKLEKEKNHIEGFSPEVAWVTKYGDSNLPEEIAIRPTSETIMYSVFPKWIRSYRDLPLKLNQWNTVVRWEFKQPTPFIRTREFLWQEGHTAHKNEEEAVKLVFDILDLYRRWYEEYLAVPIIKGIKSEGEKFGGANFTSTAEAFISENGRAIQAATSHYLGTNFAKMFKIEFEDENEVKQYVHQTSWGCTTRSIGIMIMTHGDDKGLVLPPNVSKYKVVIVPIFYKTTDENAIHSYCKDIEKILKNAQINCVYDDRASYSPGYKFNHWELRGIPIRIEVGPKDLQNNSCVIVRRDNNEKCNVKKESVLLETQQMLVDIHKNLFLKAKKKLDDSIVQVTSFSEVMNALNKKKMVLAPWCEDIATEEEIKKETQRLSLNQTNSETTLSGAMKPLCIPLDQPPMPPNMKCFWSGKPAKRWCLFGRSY

[2] = target: Lysine--tRNA ligase (Plasmodium falciparum (isolate 3D7), UniProt Q8IDJ8); assay: MMV: KRS recombinant Plasmodium falciparum Lysyl-tRNA-synthetase, assay with yeast tRNA, ATP, and lysine and 3 uM MMV malaria box compound, assay read out with kinase glo as % inhibition.
Lysine--tRNA ligase, sequence (Q8IDJ8 whole entry): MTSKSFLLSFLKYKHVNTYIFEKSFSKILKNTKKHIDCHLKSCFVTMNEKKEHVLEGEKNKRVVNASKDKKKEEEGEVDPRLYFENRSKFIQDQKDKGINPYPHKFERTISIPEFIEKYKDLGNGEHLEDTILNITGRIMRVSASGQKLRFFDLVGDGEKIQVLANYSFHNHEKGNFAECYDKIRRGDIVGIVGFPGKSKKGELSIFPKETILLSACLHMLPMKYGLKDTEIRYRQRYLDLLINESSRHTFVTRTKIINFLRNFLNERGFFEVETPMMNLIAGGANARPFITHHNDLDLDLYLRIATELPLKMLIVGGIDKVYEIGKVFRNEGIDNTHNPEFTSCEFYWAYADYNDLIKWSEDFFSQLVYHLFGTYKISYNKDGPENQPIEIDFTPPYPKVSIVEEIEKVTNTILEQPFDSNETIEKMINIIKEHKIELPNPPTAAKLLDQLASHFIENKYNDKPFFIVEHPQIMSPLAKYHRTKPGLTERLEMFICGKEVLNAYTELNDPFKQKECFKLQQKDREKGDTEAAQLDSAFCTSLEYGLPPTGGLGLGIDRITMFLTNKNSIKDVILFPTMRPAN

[3] = target: T2, Calcium-dependent protein kinase 4 (Plasmodium falciparum (isolate 3D7), UniProt Q8IBS5); assay: MMV: CDPK4 Protein kinase inhibition assay using recombinant PfCDPK4, syntide2 peptide substrate, ATP and KinaseGlo to measure % inhibition at 1 uM MMV box compound.
T2 sequence (Q8IBS5 whole entry): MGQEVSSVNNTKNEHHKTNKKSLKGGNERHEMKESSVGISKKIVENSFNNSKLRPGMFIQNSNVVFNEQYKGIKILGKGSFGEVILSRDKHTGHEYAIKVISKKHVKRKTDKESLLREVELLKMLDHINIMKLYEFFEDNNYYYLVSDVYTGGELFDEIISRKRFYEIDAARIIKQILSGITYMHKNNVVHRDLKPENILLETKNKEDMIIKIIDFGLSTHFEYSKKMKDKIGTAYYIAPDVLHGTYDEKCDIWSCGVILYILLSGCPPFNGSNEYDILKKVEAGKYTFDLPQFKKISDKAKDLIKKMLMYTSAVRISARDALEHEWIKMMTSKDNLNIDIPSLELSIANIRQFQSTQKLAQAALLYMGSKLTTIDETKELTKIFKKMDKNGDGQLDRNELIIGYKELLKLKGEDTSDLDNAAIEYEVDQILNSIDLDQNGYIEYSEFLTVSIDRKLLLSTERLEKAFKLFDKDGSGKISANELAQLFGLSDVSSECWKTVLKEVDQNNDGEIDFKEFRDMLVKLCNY

[4] = target: Calcium-dependent protein kinase 1 (Plasmodium falciparum, UniProt P62344); assay: MMV: CDPK1 Protein kinase inhibition assay using recombinant PfCDPK1, syntide 2 peptide substrate, ATP and KinaseGlo to measure % inhibition at 1 uM MMV box compound.
Calcium-dependent protein kinase 1, sequence (P62344 whole entry): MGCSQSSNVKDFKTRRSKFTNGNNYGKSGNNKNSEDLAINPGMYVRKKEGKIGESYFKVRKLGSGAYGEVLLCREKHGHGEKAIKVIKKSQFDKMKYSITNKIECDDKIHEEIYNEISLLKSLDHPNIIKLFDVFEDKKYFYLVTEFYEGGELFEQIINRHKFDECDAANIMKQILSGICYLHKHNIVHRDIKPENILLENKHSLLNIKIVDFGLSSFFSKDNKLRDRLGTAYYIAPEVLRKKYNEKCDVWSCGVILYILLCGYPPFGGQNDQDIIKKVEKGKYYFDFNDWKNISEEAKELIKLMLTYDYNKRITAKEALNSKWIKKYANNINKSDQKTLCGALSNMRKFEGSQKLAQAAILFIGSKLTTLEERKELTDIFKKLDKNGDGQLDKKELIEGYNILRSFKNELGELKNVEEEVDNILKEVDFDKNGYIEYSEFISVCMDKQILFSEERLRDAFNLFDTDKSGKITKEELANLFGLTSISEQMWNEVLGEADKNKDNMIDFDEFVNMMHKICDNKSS

[5] = target: T3, Cdk-related protein kinase 6 (Plasmodium falciparum, UniProt O77239); assay: Final concentrations were 1.5 uM ATP, 5 mM MnCl2, and 15 ug/ml PK6 in a buffer of 100 mM Tris-HCl (pH 7.5). 50 ug/mL MBP was provided as the substrate; 10 uM staurosporine was used as a control inhibitor. Incubation time was 3 hours and 40 minutes.The catalytic activity of each kinase was considered proportional to ATP consumed, as determined from measurements of residual [ATP] with the luciferase-based reagent Kinase-Glo (Promega) following incubation. Luminescence (proportional to residual [ATP]) was measured on the plate readers FLx800 (BioTek Instruments, Winooski, VT, USA) and MicroBeta2.
T3 sequence (O77239 whole entry): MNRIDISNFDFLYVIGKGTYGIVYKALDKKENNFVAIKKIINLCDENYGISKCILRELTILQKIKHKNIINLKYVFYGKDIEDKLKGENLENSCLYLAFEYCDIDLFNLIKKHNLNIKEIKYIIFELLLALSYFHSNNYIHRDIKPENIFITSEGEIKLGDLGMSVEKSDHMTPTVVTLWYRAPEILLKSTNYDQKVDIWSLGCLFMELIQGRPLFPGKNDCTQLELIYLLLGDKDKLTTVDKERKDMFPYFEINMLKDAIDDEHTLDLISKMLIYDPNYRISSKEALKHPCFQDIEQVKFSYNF

[6] = target: T4, Mitogen-activated protein kinase (Plasmodium falciparum, UniProt Q25917); assay: Final concentrations were 1 uM ATP, 0.5 mM DTT, 1 mM MgCl2, 0.5 mg/mL BSA, and 10 ug/ml MAP2 in a buffer of 50 mM HEPES (pH 7.0). 0.5 mg/mL histone III-S served as the substrate (13); 100 uM AMP-PNP, an ATP analog, was used as a control inhibitor. Incubation time was 4 hours.
T4 sequence (Q25917 whole entry): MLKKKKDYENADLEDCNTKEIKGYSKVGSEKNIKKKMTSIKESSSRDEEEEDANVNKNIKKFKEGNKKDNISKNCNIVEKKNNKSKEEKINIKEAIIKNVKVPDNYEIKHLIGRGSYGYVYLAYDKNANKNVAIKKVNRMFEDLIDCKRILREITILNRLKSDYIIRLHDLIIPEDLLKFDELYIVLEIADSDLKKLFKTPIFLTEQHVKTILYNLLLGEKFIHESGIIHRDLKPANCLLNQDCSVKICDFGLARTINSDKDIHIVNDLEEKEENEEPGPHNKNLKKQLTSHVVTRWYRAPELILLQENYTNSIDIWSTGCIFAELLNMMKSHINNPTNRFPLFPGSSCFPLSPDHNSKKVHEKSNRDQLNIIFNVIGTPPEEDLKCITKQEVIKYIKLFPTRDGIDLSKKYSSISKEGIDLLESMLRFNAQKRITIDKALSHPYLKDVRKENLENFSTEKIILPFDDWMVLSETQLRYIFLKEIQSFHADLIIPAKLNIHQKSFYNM

[7] = target: T5, Putative uncharacterized protein pk7 (Plasmodium falciparum, UniProt O96214); assay: Final concentrations were 1 uM ATP, 2 mM DTT, 20 mM MgCl2, 2 mM MnCl2, 0.01% BSA, and 6 ug/ml PK7, in a buffer of 20 mM Tris-HCl (pH 7.5). The enzyme itself was the only substrate present (since autophosphorylation occurs); 100 uM 1NA-PP1 was used as a control inhibitor. Incubation time was 3 hours.
T5 sequence (O96214 whole entry): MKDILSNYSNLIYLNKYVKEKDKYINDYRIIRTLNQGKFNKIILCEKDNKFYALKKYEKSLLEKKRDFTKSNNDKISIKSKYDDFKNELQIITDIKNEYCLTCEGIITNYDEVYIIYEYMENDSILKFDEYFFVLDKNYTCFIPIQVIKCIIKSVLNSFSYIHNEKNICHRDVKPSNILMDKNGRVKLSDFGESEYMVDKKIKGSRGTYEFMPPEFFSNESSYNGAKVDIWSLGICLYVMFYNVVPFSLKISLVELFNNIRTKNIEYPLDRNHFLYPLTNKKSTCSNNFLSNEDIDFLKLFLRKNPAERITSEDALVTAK

| Compound | IC50 [1] | IC50 [2] | IC50 [3] | IC50 [4] | IC50 [5] | IC50 [6] | IC50 [7] |
| --- | --- | --- | --- | --- | --- | --- | --- |
| CN1CCN(c2ccc(Nc3c4ccccc4nc4ccccc34)cc2)CC1 | > 2500 nM | > 2500 nM | > 1000 nM | > 1000 nM | > 1000 nM | > 1000 nM | > 1000 nM |
| CCN(CC)CCNc1ncnc2c1[nH]c1ccc(Cl)cc12 | > 2500 nM | > 2500 nM | > 1000 nM | > 1000 nM | > 1000 nM | > 1000 nM | > 1000 nM |
| CCN(CC)CCNc1ccnc2cc(Cl)ccc12 | > 2500 nM | > 2500 nM | > 1000 nM | > 1000 nM | > 1000 nM | > 1000 nM | > 1000 nM |
| CCC(c1ccccc1)c1nn2c(-c3cccs3)nnc2s1 (centres undefined) | > 2500 nM | > 2500 nM | > 1000 nM | > 1000 nM | > 1000 nM | > 1000 nM | > 1000 nM |
| CC1CN(C(=O)c2sc3ccccc3c2Cl)CC(C)O1 (centres undefined) | > 2500 nM | > 2500 nM | > 1000 nM | > 1000 nM | > 1000 nM | > 1000 nM | > 1000 nM |
| CN(C)c1ccc(C=Cc2nc(=O)c3ccccc3o2)cc1 | > 2500 nM | > 2500 nM | > 1000 nM | > 1000 nM | > 1000 nM | > 1000 nM | > 1000 nM |
| OC(CNC1CCCCC1)Cn1c2ccccc2c2ccccc21 (centres undefined) | > 2500 nM | > 2500 nM | > 1000 nM | > 1000 nM | > 1000 nM | > 1000 nM | > 1000 nM |
| CCCN(CCC)CC(O)COc1ccccc1C(=O)Nc1ccccc1 (centres undefined) | > 2500 nM | > 2500 nM | > 1000 nM | > 1000 nM | > 1000 nM | > 1000 nM | > 1000 nM |
| CCOC(=O)c1c(C)n(-c2ccc(Cl)cc2)c2ccc(OC(=O)C=Cc3ccccc3)cc12 | > 2500 nM | > 2500 nM | > 1000 nM | > 1000 nM | > 1000 nM | > 1000 nM | > 1000 nM |
| C=CC12CCN(CC1)C(C(O)c1ccnc3ccc(OC)cc13)C2 (centres undefined) | > 2500 nM | > 2500 nM | > 1000 nM | > 1000 nM | > 1000 nM | > 1000 nM | > 1000 nM |
| Cc1ccc(-c2cc3nc4c(c(O)n3n2)CCCC4)cc1 | > 2500 nM | > 2500 nM | > 1000 nM | > 1000 nM | > 1000 nM | > 1000 nM | > 1000 nM |
| Cc1cc(C)c2c(c1)OCN(Cc1ccccc1Cl)C2 | > 2500 nM | > 2500 nM | > 1000 nM | > 1000 nM | > 1000 nM | > 1000 nM | > 1000 nM |
| COc1ccccc1NC1=C(N2CCCCC2)C(=O)c2ccccc2C1=O | > 2500 nM | > 2500 nM | > 1000 nM | > 1000 nM | > 1000 nM | > 1000 nM | > 1000 nM |
| Cc1cc(NC(=O)C2c3ccccc3C(=O)N(CC(C)C)C2c2cccs2)no1 (centres undefined) | > 2500 nM | > 2500 nM | > 1000 nM | > 1000 nM | > 1000 nM | > 1000 nM | > 1000 nM |
| COc1ccc2c(=O)cc(C(Cl)(Cl)Cl)oc2c1 | > 2500 nM | > 2500 nM | > 1000 nM | > 1000 nM | > 1000 nM | > 1000 nM | > 1000 nM |
| Cc1ccc(N2C3c4ccccc4N(S(=O)(=O)c4ccc(C)cc4)C2c2ccccc2N3S(=O)(=O)c2ccc(C)cc2)cc1 | > 2500 nM | > 2500 nM | > 1000 nM | > 1000 nM | > 1000 nM | > 1000 nM | > 1000 nM |
| c1ccc(Cn2c(N=Nc3c(Nc4ccccc4)ccc4ccccc34)nc3ccccc32)cc1 | > 2500 nM | > 2500 nM | > 1000 nM | > 1000 nM | > 1000 nM | > 1000 nM | > 1000 nM |
